# According to patent US8952024B2, “Herbicidal pyrimidone derivatives” (E I du Pont de Nemours and Company, priority 2009, dated 2015):
# Key:
# Type in all cases: in vivo
# [1] = system: umbrella sedge (Cyperus difformis); assay: Test B flooded paddy test; settings: for Plant response rating, Sedge, Umbrella: Flood (flooded paddy test), 13 to 15 days
# In short: (§1)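 Plants were grown to the 2-leaf stage, then pots were flooded to 3 cm above the soil and compounds were applied directly into the paddy water. That depth was held throughout. After 13 to 15 days in a greenhouse, injury was visually rated against controls on a 0–100 scale.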
# rice (Oryza sativa) = assay: Test B flooded paddy test; settings: for Plant response rating, Rice: Flood (flooded paddy test), 13 to 15 days
# In short: as §1
# [2] = system: ducksalad (Heteranthera limosa); assay: Test B flooded paddy test; settings: for Plant response rating, Ducksalad: Flood (flooded paddy test), 13 to 15 days
# In short: as §1
# [3] = system: barnyardgrass (Echinochloa crus-galli); assay: Test B flooded paddy test; settings: for Plant response rating, Barnyardgrass: Flood (flooded paddy test), 13 to 15 days
# In short: as §1
# [4] = system: velvetleaf (Abutilon theophrasti); assay: Test A pre-/postemergence plant response
# In short: (§2)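 Plants grown from seed in a loam soil and sand mix received test compounds both as a preemergence soil spray and, at the same time, as a postemergence spray at the one- to two-leaf stage. Injury was judged visually against untreated controls roughly ten days later, 0 meaning no effect and 100 complete control.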
# [5] = system: large crabgrass (Digitaria sanguinalis); assay: Test A pre-/postemergence plant response
# In short: as §2
# [6] = system: giant foxtail (Setaria faberii); assay: Test A pre-/postemergence plant response
# In short: as §2
# [7] = system: morningglory (Ipomoea spp.); assay: Test A pre-/postemergence plant response
# In short: as §2
# [8] = system: wheat (Triticum aestivum); assay: Test A pre-/postemergence plant response
# In short: as §2
# corn (Zea mays) = assay: Test A pre-/postemergence plant response
# In short: as §2
# [9] = system: barnyardgrass (Echinochloa crus-galli); assay: Test A pre-/postemergence plant response
# In short: as §2
# [10] = system: pigweed (Amaranthus retroflexus); assay: Test A pre-/postemergence plant response
# In short: as §2
# [11] = 250 g ai/ha, flooded paddy test, visual rating on 0 to 100 scale (0 no effect, 100 complete control) after 13 to 15 days
# [12] = 62 g ai/ha, scale of 0 to 100 where 0 is no effect and 100 is complete control
# [13] = 125 g ai/ha, scale 0 to 100, 0 is no effect, 100 is complete control
# [14] = Flood, 31 g ai/ha, scale 0 to 100 (0 no effect, 100 complete control)
# [15] = Postemergence, 125 g ai/ha, 0 to 100 scale where 0 is no effect and 100 is complete control
# [16] = Postemergence, 500 g ai/ha, visual injury, 0 to 100 scale (0 no effect, 100 complete control), approx. ten days
# [17] = Preemergence, 125 g ai/ha, 0 to 100 scale, 0 = no effect, 100 = complete control
# [18] = Preemergence, 500 g ai/ha, 0 to 100 scale, 0 = no effect, 100 = complete control
smiles,measurement,setting,value
COc1ccc(-n2c(-c3ccccc3)ncc(C(=O)C3=C(O)CCCC3=O)c2=O)cc1OC [Compound 218],"Plant response rating, Flood, Sedge, Umbrella",[1]; [11],85
same,"Plant response rating, Sedge, Umbrella",[1]; [12],80
same,"Plant response rating, Sedge, Umbrella",[1]; [13],85
same,"Sedge, Umbrella plant response rating",[1]; [14],75
same,"Plant response rating, Flood, Rice",rice (Oryza sativa); [11],15
same,"Plant response rating, Rice",rice (Oryza sativa); [12],0
same,"Plant response rating, Rice",rice (Oryza sativa); [13],10
same,Rice plant response rating,rice (Oryza sativa); [14],0
same,"Plant response rating, Flood, Ducksalad",[2]; [11],95
same,"Plant response rating, Ducksalad",[2]; [12],80
same,"Plant response rating, Ducksalad",[2]; [13],85
same,Ducksalad plant response rating,[2]; [14],75
same,"Plant response rating, Flood, Barnyardgrass",[3]; [11],40
same,"Plant response rating, Barnyardgrass",[3]; [12],0
same,"Plant response rating, Barnyardgrass",[3]; [13],30
same,Barnyardgrass plant response rating,[3]; [14],0
same,"Plant response rating, Velvetleaf",[4]; [15],100
same,Velvetleaf plant response rating,[4]; [16],100
same,"Plant response rating, Velvetleaf",[4]; [17],50
same,"Plant response rating, Velvetleaf",[4]; [18],90
same,"Plant response rating, Crabgrass, Large",[5]; [15],20
same,"Crabgrass, Large plant response rating",[5]; [16],70
same,"Plant response rating, Crabgrass, Large",[5]; [17],10
same,"Plant response rating, Crabgrass, Large",[5]; [18],80
same,"Plant response rating, Foxtail, Giant",[6]; [15],40
same,"Foxtail, Giant plant response rating",[6]; [16],70
same,"Plant response rating, Foxtail, Giant",[6]; [17],0
same,"Plant response rating, Foxtail, Giant",[6]; [18],50
same,"Plant response rating, Morningglory",[7]; [15],80
same,Morningglory plant response rating,[7]; [16],100
same,"Plant response rating, Morningglory",[7]; [17],0
same,"Plant response rating, Morningglory",[7]; [18],80
same,"Plant response rating, Wheat",[8]; [15],0
same,Wheat plant response rating,[8]; [16],0
same,"Plant response rating, Wheat",[8]; [17],0
same,"Plant response rating, Wheat",[8]; [18],0
same,"Plant response rating, Corn",corn (Zea mays); [15],0
same,Corn plant response rating,corn (Zea mays); [16],70
same,"Plant response rating, Corn",corn (Zea mays); [17],0
same,"Plant response rating, Corn",corn (Zea mays); [18],0
same,"Plant response rating, Barnyardgrass",[9]; [15],80
same,Barnyardgrass plant response rating,[9]; [16],90
same,"Plant response rating, Barnyardgrass",[9]; [17],20
same,"Plant response rating, Barnyardgrass",[9]; [18],100
same,"Plant response rating, Pigweed",[10]; [15],100
same,Pigweed plant response rating,[10]; [16],100
same,"Plant response rating, Pigweed",[10]; [17],20
same,"Plant response rating, Pigweed",[10]; [18],90
